Reference: paper PMC10112521, “High-throughput AR dimerization assay identifies androgen disrupting chemicals and metabolites” (Frontiers in Toxicology, 2023)
Like-named read-outs stand apart in the source and are kept apart here.

Key:
[1] = tested on: AR2 cells (HepG2-AR2)
Experimental: (§1) For antagonist mode and cytotoxicity data, well-level normalized response (resp) was calculated as: resp=100 * RLU−bval/pval−bval where pval is the median RLU value of the MEC positive control wells (minimum four wells).

[2] = tested on: AR2 cells (HepG2-AR2); test: Alamar Blue (resazurin) post hoc cell viability / cytotoxicity assay in AR2 cells; conditions: spid Viability, sheet antagonist_fits; for hill_tp (Hill model top): 0 where win_model is Constant
Experimental: as §1

[3] = tested on: AR; set-up: method as in Kleinstreuer et al., 2017; conditions: 2017, cited from earlier work; for Agonist reference: AR agonist reference class ref Kleinstreuer et al.; for Antagonist reference: AR antagonist reference class ref Kleinstreuer et al.
[4] = molecular target: T1, human AR (Homo sapiens, UniProt P10275); test: AR2 assay, antagonist mode: disruption of R1881 (10 nM)-induced AR homodimerization in HepG2-AR2 cells; type: cell-based
T1 sequence (P10275 1-920) 1: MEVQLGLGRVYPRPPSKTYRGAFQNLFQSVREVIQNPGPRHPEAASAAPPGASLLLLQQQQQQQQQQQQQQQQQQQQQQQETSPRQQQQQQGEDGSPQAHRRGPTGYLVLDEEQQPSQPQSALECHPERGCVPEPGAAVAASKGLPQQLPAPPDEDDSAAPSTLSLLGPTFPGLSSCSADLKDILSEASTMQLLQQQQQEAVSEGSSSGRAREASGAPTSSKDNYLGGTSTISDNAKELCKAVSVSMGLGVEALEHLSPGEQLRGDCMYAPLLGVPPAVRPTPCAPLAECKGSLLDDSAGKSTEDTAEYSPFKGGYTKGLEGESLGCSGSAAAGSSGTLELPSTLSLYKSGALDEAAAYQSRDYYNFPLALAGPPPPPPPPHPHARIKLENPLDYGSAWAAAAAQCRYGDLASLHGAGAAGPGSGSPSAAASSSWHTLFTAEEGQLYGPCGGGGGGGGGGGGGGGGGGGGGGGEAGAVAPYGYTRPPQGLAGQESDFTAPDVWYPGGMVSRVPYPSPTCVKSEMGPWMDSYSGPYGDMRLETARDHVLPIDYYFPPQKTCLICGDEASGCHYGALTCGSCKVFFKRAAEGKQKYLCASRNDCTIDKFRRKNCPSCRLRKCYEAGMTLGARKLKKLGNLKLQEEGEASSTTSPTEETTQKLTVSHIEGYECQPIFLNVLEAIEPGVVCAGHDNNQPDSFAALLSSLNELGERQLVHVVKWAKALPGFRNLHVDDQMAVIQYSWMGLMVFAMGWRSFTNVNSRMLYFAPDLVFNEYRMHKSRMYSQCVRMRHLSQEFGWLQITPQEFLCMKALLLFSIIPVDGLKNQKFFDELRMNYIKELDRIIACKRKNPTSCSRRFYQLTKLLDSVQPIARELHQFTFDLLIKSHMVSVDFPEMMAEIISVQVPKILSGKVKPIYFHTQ
T1 sequence (P10275 1-920) 2: T1 sequence (P10275 1-920) 1

[5] = molecular target: T1, human AR; test: cell-based; set-up: species or system AR2 cells (HepG2-AR2); NanoLuc complementation AR homodimerization, antagonist mode, loss of agonist-induced luminescence, AC50 by Hill fit; conditions: hill_ga
[6] = molecular target: T1, human AR; test: AR2 assay, agonist mode: ligand-dependent AR homodimerization (NanoBiT luciferase complementation) in stable HepG2-AR2 cells; type: cell-based; conditions: sheet agonist_fits; for hill_tp: Hill model top (efficacy), 0 given where win_model is Constant; for max_med: maximum median response; for win_model: winning concentration-response model (Constant, Hill, Gain-Loss);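 as to hill tp: Log2 fold change of luminescence over DMSO vehicle wells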;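 as to max med: Log2 fold change of luminescence over DMSO vehicle wells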
[7] = spid AR_antagonist, sheet antagonist_fits
[8] = spid AR_antagonist, sheet antagonist_fits, 0 where win_model is Constant
[9] = spid=Bgal, antagonist mode, 10 nM agonist stimulus, 18 h, no CYP expressed
[10] = spid=No_RNA, antagonist mode, 10 nM agonist stimulus, 18 h, no CYP expressed
[11] = spid AR_antagonist, sheet antagonist_fits, Hill fit parameter

| Compound | hill_ga (Hill model log AC50) [1] | max_med (maximum median response) [2] | hill_tp (Hill model top) [2] | other results |
| --- | --- | --- | --- | --- |
| CC(C)(C)CC(C)(C)c1ccc(O)cc1 [4-(1,1,3,3-Tetramethylbutyl)phenol] | 1.5 | 99.7722 | 100.987 |  |
| CC(C)(c1ccccc1)c1ccc(O)cc1 [4-Cumylphenol] | 1.81 | 99.676 |  |  |
| Nc1nc[nH]n1 [Amitrole] | 1.008 | 20.9539 | 26.1033 |  |
| O=c1cc(-c2ccc(O)cc2)oc2cc(O)cc(O)c12 [Apigenin] | 1.291 | 44.3137 | 57.4844 |  |
| CCNc1nc(Cl)nc(NC(C)C)n1 [Atrazine] | 1.242 | 11.6649 | 7.792 | Agonist reference [3]: Inactive; Antagonist reference [3]: Inactive; Agonist reference ([3]; Supplementary Table S1): Inactive; Antagonist reference ([3]; Supplementary Table S1): Inactive |
| Oc1ccc(C(c2ccc(O)cc2)(C(F)(F)F)C(F)(F)F)cc1 [Bisphenol AF] | 1.485 | 99.8528 | 100.2 |  |
| CCC(C)(c1ccc(O)cc1)c1ccc(O)cc1 [Bisphenol B] | 1.739 | 49.2471 | 49.223 |  |
| CNC(=O)Oc1cccc2c1OC(C)(C)C2 [Carbofuran] |  | 23.3178 | 15.7111 | max_med (maximum median response) [4, 7]: 28.4656; win_model (winning concentration-response model) [4, 7]: Hill; hill_gw (Hill model slope) [4, 8]: 1.516; hill_tp (Hill model top) [4, 8]: 33.2623; AC50 [5]: 44.2 µM; hill_tp [6]: 0; max_med [6]: 0.1027; win_model [6]: Constant |
| CC1(C)C(C=C(Cl)Cl)C1C(=O)OC(C#N)c1ccc(F)c(Oc2ccccc2)c1 (stereo not drawn) [Cyfluthrin] | 0 | 9.8887 | 0 | Agonist reference [3]: Inactive |
| CC1(C)C(C=C(Cl)Cl)C1C(=O)OC(C#N)c1cccc(Oc2ccccc2)c1 (stereo not drawn) [Cypermethrin] | 0 | 5.609 | 0 | Agonist reference [3]: Inactive |
| O=c1c(-c2ccc(O)cc2)coc2cc(O)ccc12 [Daidzein] |  | 12.142 | 8.263 | max_med (maximum median response) [4, 7]: 67.6764; win_model (winning concentration-response model) [4, 7]: Hill; hill_gw (Hill model slope) [4, 8]: 1.585; hill_tp (Hill model top) [4, 8]: 87.2882; AC50 [5, 9]: 59.8 µM; AC50 [5, 10]: 46.5 µM; hill_tp [6]: 0; max_med [6]: 0.1579; win_model [6]: Constant; Agonist reference ([3]; Supplementary Table S1): Inactive |
| CCCCOC(=O)c1ccccc1C(=O)OCCCC [Dibutyl phthalate] | 1.084 | 27.2383 | 28.3952 |  |
| N#Cc1c(Cl)cccc1Cl [Dichlobenil] | 0 | 10.2924 | 0 |  |
| CCOC(=O)c1ccccc1C(=O)OCC [Diethyl phthalate] | 0.07147 | 22.6345 | 17.9391 |  |
| CCOC(=O)c1ccc(O)cc1 [Ethylparaben] | 0 | 6.202 | 0 |  |
| C=C1C[C@@H]2[C@H](CC[C@]3(C)C(=O)CC[C@@H]23)[C@@]2(C)C=CC(=O)C=C12 [Exemestane] |  |  |  | hill_tp (Hill model top) [1]: 0; max_med (maximum median response) ([1]; spid Viability, sheet antagonist_fits): 7.414 |
| OC(c1ccc(Cl)cc1)(c1cncnc1)c1ccccc1Cl (stereo not drawn) [Fenarimol] | 0 | 16.9049 | 0 | Agonist reference [3]: Inactive; Antagonist reference [3]: Weak; Antagonist reference ([3]; Supplementary Table S1): Weak |
| O=C1c2ccccc2C(=O)N1SC(Cl)(Cl)Cl [Folpet] | 1.483 | 26.2456 | 26.8665 |  |
| O=c1c(-c2ccc(O)cc2)coc2cc(O)cc(O)c12 [Genistein] |  | 23.3224 | 24.3043 | hill_tp (Hill model top) [4]: 100.659; max_med (maximum median response) [4]: 101.398; win_model (winning concentration-response model) [4, 7]: Hill; hill_gw (Hill model slope) [4, 8]: 2.066; AC50 [5, 9]: 9.34 µM; AC50 [5, 10]: 9.32 µM; hill_tp [6]: 0; max_med [6]: 0.108; win_model [6]: Constant |
| CC(C)NC(=O)N1CC(=O)N(c2cc(Cl)cc(Cl)c2)C1=O [Iprodione] | 0 | 9.628 | 0 | Agonist reference ([3]; Supplementary Table S1): Inactive |
| CNc1cnn(-c2cccc(C(F)(F)F)c2)c(=O)c1Cl [Norflurazon] | 0 | 4.6212 | 0 |  |
| C#CCOS(=O)OC1CCCCC1Oc1ccc(C(C)(C)C)cc1 (stereo not drawn) [Propargite] | 0.5083 | 5.892 | 5.298 |  |
| CCNc1nc(Cl)nc(NCC)n1 [Simazine] | -0.7451 | 12.6117 | 7.295 | Antagonist reference [3]: Inactive |
| CC(C)(C)C(=O)C(Oc1ccc(Cl)cc1)n1cncn1 (stereo not drawn) [Triadimefon] | -3.878 | 19.918 | 58.3985 |  |
| C=CC1(C)OC(=O)N(c2cc(Cl)cc(Cl)c2)C1=O (stereo not drawn) [Vinclozolin] | -3.255 | 15.9864 | 12.9726 | Antagonist reference [3]: Weak; Antagonist reference ([3]; Supplementary Table S1): Weak |
| COP(=O)(OC)O/C(=C\Cl)c1cc(Cl)c(Cl)cc1Cl [Z-Tetrachlorvinphos] |  | 16.5553 |  | max_med (maximum median response) [4, 7]: 94.4561; win_model (winning curve-fit model) ([4]; spid AR_antagonist, sheet antagonist_fits, Constant = no concentration response): Hill; hill_gw (Hill model slope/Hill coefficient) [4, 11]: 1.437; hill_tp (Hill model top of curve) [4, 11]: 113.966; AC50 [5, 9]: 28.8 µM; AC50 [5, 10]: 28.9 µM; hill_tp (Hill model top of curve) ([2]; Hill fit parameter): 16.4592; hill_tp [6]: 0; max_med [6]: 0.08626; win_model [6]: Constant |
| Clc1ccc(C(c2ccccc2Cl)C(Cl)(Cl)Cl)cc1 (stereo not drawn) [o,p'-DDT] | 1.826 |  |  | hill_tp (Hill model top of curve) ([1]; human): 110.666; max_med (maximum median response) ([1]; human): 83.8839; Agonist reference [3]: Inactive; Antagonist reference [3]: Weak; Antagonist reference ([3]; Supplementary Table S1): Weak |
| Clc1ccc(C(c2ccc(Cl)cc2)C(Cl)Cl)cc1 [p,p'-DDD] | 1.74 |  |  | hill_tp (Hill model top of curve) ([1]; human, 18 h): 93.5622; max_med (maximum median response) ([1]; human, 18 h): 93.2611 |
| ClC(Cl)=C(c1ccc(Cl)cc1)c1ccc(Cl)cc1 [p,p'-DDE] | 1.812 |  |  | Antagonist reference ([3]; Supplementary Table S1): Weak |
